Our source for the IC90 values is patent US12421211B2, “Heterocyclic compounds” (Hoffmann-La Roche Inc., priority 2021, dated 2025).

Structures can show the parent of a compound that is named as a salt.

As a reminder, the IC90 is the concentration needed for an effect of 90%.

In the first assay the test system is Acinetobacter baumannii ATCC17961. As to the kind of experiment: Antimicrobial susceptibility testing: 90% growth inhibitory concentration (IC90) determination. Format: cell-based. The note with it: Acinetobacter baumannii, ATCC17961, 16 h, 90% growth inhibitory concentration, Acinetobacter baumannii ATCC17961, Iso-Sensitest broth, OD 600 nm over 16 h; read-out: ATCC 17961 IC90. The method, then:
Assay Procedures Antimicrobial Susceptibility Testing: 90% Growth Inhibitory Concentration (IC90) Determination
The in vitro antimicrobial activity of the compounds was determined according to the following procedure:
The assay used a 10-points Iso-Sensitest broth medium to measure quantitatively the in vitro activity of the compounds against Acinetobacter baumannii ATCC17961.
Stock compounds in DMSO were serially twofold diluted (e.g. range from 50 to 0.097 μM final concentration) in 384 wells microtiter plates and inoculated with 49 μl the bacterial suspension in Iso-Sensitest medium to have a final cell concentration of ˜5×10^(5) CFU/ml in a final volume/well of 50 ul/well. Microtiter plates were incubated at 35±2° C.
Bacterial cell growth was determined with the measurement of optical density at λ=600 nm each 20 minutes over a time course of 16h. Growth inhibition was calculated during the logarithmic growth of the bacterial cells with determination of the concentration inhibiting 50% (IC50) and 90% (IC90) of the growth.
Table 1 provides the 90% growth inhibitory concentrations (IC90) in micromoles per liter of the compounds of present invention obtained against the strain Acinetobacter baumannii ATCC17961.
In the case of `COCCn1cc(-c2ccc(-c3cnc(C(=O)Nc4ccc(C(=O)N5CCN(C(=O)[C@@H]6C[C@@H](O)C[N+]6(C)C)CC5)c(Cl)c4)n3C)c(F)c2F)c(C(C)C)n1` [Example F11, N-[3-chloro-4-[4-[(2S,4R)-4-hydroxy-1,1-dimethyl-pyrrolidin-1-ium-2-carbonyl]piperazine-1-carbonyl]phenyl]-5-[2,3-difluoro-4-[3-isopropyl-1-(2-methoxyethyl)pyrazol-4-yl]phenyl]-1-methyl-imidazole-2-carboxamide; formate], the IC90 amounted to 800 nM.

In the case of `COCCn1ncc(-c2ccc(-c3cnc(C(=O)Nc4ccc(C(=O)N5CCNCC5)c(Cl)c4)n3C)c(F)c2F)c1C` [Example E7, N-[3-chloro-4-(piperazine-1-carbonyl)phenyl]-5-[2,3-difluoro-4-[1-(2-methoxyethyl)-5-methyl-pyrazol-4-yl]phenyl]-1-methyl-imidazole-2-carboxamide; 2,2,2-trifluoroacetic acid], the IC90 was determined as 210 nM.

Take `COCCn1ncc(-c2ccc(-c3cnc(C(=O)Nc4ccc(C(=O)N5CCC(C(=O)N6CC[N+](C)(C)CC6)CC5)c(Cl)c4)n3C)c(F)c2F)c1C` [Example A10, N-[3-chloro-4-[4-(4,4-dimethylpiperazin-4-ium-1-carbonyl)piperidine-1-carbonyl]phenyl]-5-[2,3-difluoro-4-[1-(2-methoxyethyl)-5-methyl-pyrazol-4-yl]phenyl]-1-methyl-imidazole-2-carboxamide; formate]: the IC90 worked out at 98 nM.

With `CC(CO)Cn1cc(-c2ccc(-c3cnc(C(=O)Nc4ccc(C(=O)N5CCN(C(=O)C6CC[N+](C)(C)CC6)CC5)c(Cl)c4)n3C)c(F)c2F)c(C(F)(F)F)n1` (centres unmarked) [Example F7, N-[3-chloro-4-[4-(1,1-dimethylpiperidin-1-ium-4-carbonyl)piperazine-1-carbonyl]phenyl]-5-[2,3-difluoro-4-[1-(3-hydroxy-2-methyl-propyl)-3-(trifluoro-methyl)pyrazol-4-yl]phenyl]-1-methyl-imidazole-2-carboxamide; formate], the IC90 was found to be 520 nM.

Take `COCCn1ncc(-c2ccc(-c3cnc(C(=O)Nc4ccc(C(=O)N5CCN(C(=O)C6CCNCC6)CC5)c(Cl)c4)n3C)c(C)c2F)c1C` [Example E5, N-[3-chloro-4-[4-(piperidine-4-carbonyl)piperazine-1-carbonyl]phenyl]-5-[3-fluoro-4-[1-(2-methoxyethyl)-5-methyl-pyrazol-4-yl]-2-methyl-phenyl]-1-methyl-imidazole-2-carboxamide; formic acid]: the IC90 came to 180 nM.

For `Cc1nn(CCCO)cc1-c1ccc(-c2cnc(C(=O)Nc3ccc(C(=O)N4CCN(C(=O)[C@@H]5C[C@@H](O)C[N+]5(C)C)CC4)c(Cl)c3)n2C)c(F)c1F` [Example F16, N-[3-chloro-4-[4-[(2S,4R)-4-hydroxy-1,1-dimethyl-pyrrolidin-1-ium-2-carbonyl]piperazine-1-carbonyl]phenyl]-5-[2,3-difluoro-4-[1-(3-hydroxypropyl)-3-methyl-pyrazol-4-yl]phenyl]-1-methyl-imidazole-2-carboxamide; formate], the IC90 was 240 nM.

`Cc1n[nH]cc1-c1ccc(-c2cnc(C(=O)Nc3ccc(C(=O)N4CCN(C(=O)[C@@H]5C[C@@H](O)CN5)CC4)c(Cl)c3)n2C)c(F)c1F` [Example D36, N-[3-chloro-4-[4-[(2S,4R)-4-hydroxypyrrolidine-2-carbonyl]piperazine-1-carbonyl]phenyl]-5-[2,3-difluoro-4-(3-methyl-1H-pyrazol-4-yl)phenyl]-1-methyl-imidazole-2-carboxamide]: the IC90 was determined as 88 nM.

With `COc1ccccc1NC(=O)Cn1cc(-c2ccc(-c3cnc(C(=O)Nc4ccc(C(=O)N5CCN(C(=O)C6CC[N+](C)(C)CC6)CC5)c(Cl)c4)n3C)c(F)c2F)c(C)n1` [Example G7, N-[3-chloro-4-[4-(1,1-dimethylpiperidin-1-ium-4-carbonyl)piperazine-1-carbonyl]phenyl]-5-[2,3-difluoro-4-[1-[2-(2-methoxyanilino)-2-oxo-ethyl]-3-methyl-pyrazol-4-yl]phenyl]-1-methyl-imidazole-2-carboxamide; formate], the IC90 came to 550 nM.

As for `Cc1nn(CCOC(F)F)cc1-c1ccc(-c2cnc(C(=O)Nc3ccc(C(=O)N4CCN(C(=O)[C@@H]5C[C@@H](O)C[N+]5(C)C)CC4)c(Cl)c3)n2C)c(F)c1F` [Example F9, N-[3-chloro-4-[4-[(2S,4R)-4-hydroxy-1,1-dimethyl-pyrrolidin-1-ium-2-carbonyl]piperazine-1-carbonyl]phenyl]-5-[4-[1-[2-(difluoro-methoxy)ethyl]-3-methyl-pyrazol-4-yl]-2,3-difluoro-phenyl]-1-methyl-imidazole-2-carboxamide; formate], the IC90 turned out to be 160 nM.

With `COCCn1nc(C)c(-c2ccc(-c3cnc(C(=O)Nc4ccc(C(=O)N5CCN(C(=O)C[N+]6(C)CCC(O)C6)CC5)c(Cl)c4)n3C)c(F)c2F)c1C` (centres unmarked) [Example C11, N-[3-chloro-4-[4-[2-(3-hydroxy-1-methyl-pyrrolidin-1-ium-1-yl)acetyl]piperazine-1-carbonyl]phenyl]-5-[2,3-difluoro-4-[1-(2-methoxyethyl)-3,5-dimethyl-pyrazol-4-yl]phenyl]-1-methyl-imidazole-2-carboxamide; formate], the IC90 amounted to 320 nM.

In the case of `Cc1nn(CCNC(=O)N2CCCC2)cc1-c1ccc(-c2cnc(C(=O)Nc3ccc(C(=O)N4CCN(C(=O)C5CC[N+](C)(C)CC5)CC4)c(Cl)c3)n2C)c(F)c1F` [Example H8, N-[3-chloro-4-[4-(1,1-dimethylpiperidin-1-ium-4-carbonyl)piperazine-1-carbonyl]phenyl]-5-[2,3-difluoro-4-[3-methyl-1-[2-(pyrrolidine-1-carbonylamino)ethyl]pyrazol-4-yl]phenyl]-1-methyl-imidazole-2-carboxamide; formate], the IC90 amounted to 540 nM.

As to `Cc1c(-c2ccc(-c3cnc(C(=O)Nc4ccc(C(=O)N5CCN(C(=O)[C@@H]6C[C@@H](O)C[N+]6(C)C)CC5)c(Cl)c4)n3C)c(F)c2F)cnn1CCC(C)(C)O` [Example F4, N-[3-chloro-4-[4-[(2S,4R)-4-hydroxy-1,1-dimethyl-pyrrolidin-1-ium-2-carbonyl]piperazine-1-carbonyl]phenyl]-5-[2,3-difluoro-4-[1-(3-hydroxy-3-methyl-butyl)-5-methyl-pyrazol-4-yl]phenyl]-1-methyl-imidazole-2-carboxamide; formate], the IC90 was determined as 830 nM.

Still in this assay, the particulars now being: Acinetobacter baumannii, ATCC17961, 16 h, read-out: ATCC 17961 IC90.
In the case of `COCCn1nc(C)c(-c2ccc(-c3cnc(C(=O)Nc4ccc(C(=O)N5CCN(C(=O)C6CC[N+](C)(CC(N)=O)CC6)CC5)c(Cl)c4)n3C)cc2)c1C` (centres unmarked) [Example B10, N-[4-[4-[1-(2-amino-2-oxo-ethyl)-1-methyl-piperidin-1-ium-4-carbonyl]piperazine-1-carbonyl]-3-chloro-phenyl]-5-[4-[1-(2-methoxyethyl)-3,5-dimethyl-pyrazol-4-yl]phenyl]-1-methyl-imidazole-2-carboxamide; formate], the IC90 was 200 nM.

As for `COCCn1cc(-c2ccc(-c3cnc(C(=O)Nc4ccc(C(=O)N5CCN(C(=O)C6CC[N+]7(CCNC(=O)C7)CC6)CC5)c(Cl)c4)n3C)c(F)c2F)c(C)n1` (centres unmarked) [Example Q1, N-[3-chloro-4-[4-(4-oxo-3-aza-6-azoniaspiro[5.5]undecane-9-carbonyl)piperazine-1-carbonyl]phenyl]-5-[2,3-difluoro-4-[1-(2-methoxyethyl)-3-methyl-pyrazol-4-yl]phenyl]-1-methyl-imidazole-2-carboxamide; 2,2,2-trifluoroacetate], the IC90 came to 165 nM.

Turning to `COCCn1ncc(-c2ccc(-c3cnc(C(=O)Nc4ccc(C(=O)N5CCN(C(=O)C[N+]6(C)CCC(O)C6)CC5)c(Cl)c4)n3C)c(F)c2F)c1C` (centres unmarked) [Example C1, N-[3-chloro-4-[4-[2-(3-hydroxy-1-methyl-pyrrolidin-1-ium-1-yl)acetyl]piperazine-1-carbonyl]phenyl]-5-[2,3-difluoro-4-[1-(2-methoxyethyl)-5-methyl-pyrazol-4-yl]phenyl]-1-methyl-imidazole-2-carboxamide; formate], the IC90 was found to be 45 nM.

As for `Cc1ccc(NC(=O)Cn2cc(-c3ccc(-c4cnc(C(=O)Nc5ccc(C(=O)N6CCN(C(=O)C7CC[N+](C)(C)CC7)CC6)c(Cl)c5)n4C)c(F)c3F)c(C)n2)nn1` [Example L3, N-[3-chloro-4-[4-(1,1-dimethylpiperidin-1-ium-4-carbonyl)piperazine-1-carbonyl]phenyl]-5-[2,3-difluoro-4-[3-methyl-1-[2-[(6-methylpyridazin-3-yl)amino]-2-oxo-ethyl]pyrazol-4-yl]phenyl]-1-methyl-imidazole-2-carboxamide; formate], the IC90 is 264 nM.

Take `COCCn1ncc(-c2ccc(-c3cnc(C(=O)Nc4ccc(C(=O)N5CCN(C(=O)CCC[N+](CCCCN)(CCCCN)CC(=O)O)CC5)c(Cl)c4)n3C)c(F)c2F)c1C` [Example P2, bis(4-aminobutyl)-(carboxymethyl)-[4-[4-[2-chloro-4-[[5-[2,3-difluoro-4-[1-(2-methoxyethyl)-5-methyl-pyrazol-4-yl]phenyl]-1-methyl-imidazole-2-carbonyl]amino]benzoyl]piperazin-1-yl]-4-oxo-butyl]ammonium; formate]: the IC90 was determined as 66 nM.
